Measured values reported in paper PMC8078842 (PLoS Neglected Tropical Diseases, 2021).

Columns and labels:
[1] = molecular target: Oxidase, MAO-B, Peripheral (Rattus norvegicus, UniProt P19643); test: CNS side effect panel, [^14C]Phenylethylamine; assay type: biochemical
[2] = molecular target: T1, Oxidase, MAO-A-Peripheral (Rattus norvegicus, UniProt P21396); test: CNS side effect panel, [^14C] - 5HT; assay type: biochemical
T1 sequence (P21396 1-526): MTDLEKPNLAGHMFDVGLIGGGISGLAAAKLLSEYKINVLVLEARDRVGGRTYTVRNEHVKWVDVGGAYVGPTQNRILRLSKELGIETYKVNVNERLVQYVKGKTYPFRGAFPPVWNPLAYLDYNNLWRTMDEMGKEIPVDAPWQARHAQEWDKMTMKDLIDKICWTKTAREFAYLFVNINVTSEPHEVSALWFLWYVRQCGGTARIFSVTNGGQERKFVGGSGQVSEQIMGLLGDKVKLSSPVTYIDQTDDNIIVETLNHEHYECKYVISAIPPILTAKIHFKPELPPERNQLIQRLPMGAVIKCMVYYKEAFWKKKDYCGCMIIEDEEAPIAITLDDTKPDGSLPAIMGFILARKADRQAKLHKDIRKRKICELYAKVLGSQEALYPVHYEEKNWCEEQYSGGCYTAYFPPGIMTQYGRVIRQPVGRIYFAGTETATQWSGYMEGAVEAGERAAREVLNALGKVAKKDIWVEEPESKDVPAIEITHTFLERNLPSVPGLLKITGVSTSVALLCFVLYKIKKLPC

Opioid, Non-selective = test: CNS side effect panel, [^3H]Naloxone; assay type: binding
[3] = test system: Adrenergic, Alpha 2, Non-selective; test: CNS side effect panel, [^3H]RX821002; assay type: binding; settings: pentamidine 1.0E^-5 M
Melatonin, Non-selective = test: CNS side effect panel, [^125I]-2-Iodomelatonin; assay type: binding; settings: pentamidine 1.0E^-5 M
[4] = test system: Norepinephrine Transporter; test: CNS side effect panel, [^3H]Nisoxetine; assay type: binding; settings: pentamidine 1.0E^-5 M
[5] = test system: Corticotropin Releasing Factor, Non-selective; test: CNS side effect panel, [^125I]Tyr0-oCRF; assay type: binding; settings: pentamidine 1.0E^-5 M
[6] = test system: Nitric Oxide, NOS (Neuronal-Binding); test: CNS side effect panel, [^3H]NOARG; settings: pentamidine 1.0E^-5 M
[7] = test system: Glutamate, NMDA Agonist Site (Ionotropic); test: CNS side effect panel, [^3H]CGP 39653; assay type: binding; settings: pentamidine 1.0E^-5 M
[8] = test system: fibrinogen binding to GP11b/IIIa; settings: Inhibits fibrinogen binding to GP11b/IIIa; cited from earlier work
PRL phosphatases = settings: Oncology target; cited from earlier work

Chain of Oxidase, MAO-B, Peripheral (P19643 whole entry): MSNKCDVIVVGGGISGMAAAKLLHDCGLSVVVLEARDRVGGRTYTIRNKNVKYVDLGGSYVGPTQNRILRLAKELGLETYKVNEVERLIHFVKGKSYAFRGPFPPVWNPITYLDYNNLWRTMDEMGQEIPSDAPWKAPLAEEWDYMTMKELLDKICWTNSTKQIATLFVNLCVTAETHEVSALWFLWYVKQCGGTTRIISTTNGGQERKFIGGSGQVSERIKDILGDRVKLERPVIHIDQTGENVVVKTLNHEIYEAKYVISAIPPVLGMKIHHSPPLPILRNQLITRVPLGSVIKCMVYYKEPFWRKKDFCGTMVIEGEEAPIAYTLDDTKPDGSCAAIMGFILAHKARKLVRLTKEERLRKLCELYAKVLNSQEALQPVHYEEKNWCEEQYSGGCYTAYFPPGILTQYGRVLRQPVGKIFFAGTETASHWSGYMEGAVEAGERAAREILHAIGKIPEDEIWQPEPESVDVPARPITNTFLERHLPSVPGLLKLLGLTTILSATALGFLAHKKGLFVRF

## N=C(N)c1ccc(OCCCCCOc2ccc(C(=N)N)cc2)cc1 [Pentamidine, 1,5-bis-4ρ-amidinophenoxypentane]
[1]; Monoamine oxidase B, concentration-response
  Ki: 181 nM
[1]; pentamidine 1.0E^-5 M
  Percent Inhibition: 99.99%
[2]; Monoamine oxidase A, concentration-response
  Ki: 217 nM
[2]; pentamidine 1.0E^-5 M
  Percent Inhibition: 89.42%
Opioid, Non-selective; Opioid, concentration-response
  Ki: 1410 nM
Opioid, Non-selective; pentamidine 1.0E^-5 M
  Percent Inhibition: 76.00%
[3]
  Percent Inhibition: 56.14%
Melatonin, Non-selective
  Percent Inhibition: 23.45%
[4]
  Percent Inhibition: 21.39%
[5]
  Percent Inhibition: 17.05%
[6]
  Percent Inhibition: 12.98%
[7]
  Percent Inhibition: 5.99%
[8]
  Affinity: 1.1 µM
PRL phosphatases
  Affinity: 3 µM
